In ChEMBL document CHEMBL1806398, “Benzothiazole-based N-(phenylsulfonyl)amides as a novel family of PPARα antagonists” (Bioorg Med Chem Lett, 2011):

How the values were obtained:
[1] = target: T1, Peroxisome proliferator-activated receptor alpha (Homo sapiens) (UniProt Q07869); test: Agonist activity at PPARalpha ligand binding domain expressed in HEK293 cells co-expressing GAL4 at 150 uM after 18 hrs by dual-luciferase activity based transactivation assay relative to control; type: cell-based
T1 sequence (whole entry): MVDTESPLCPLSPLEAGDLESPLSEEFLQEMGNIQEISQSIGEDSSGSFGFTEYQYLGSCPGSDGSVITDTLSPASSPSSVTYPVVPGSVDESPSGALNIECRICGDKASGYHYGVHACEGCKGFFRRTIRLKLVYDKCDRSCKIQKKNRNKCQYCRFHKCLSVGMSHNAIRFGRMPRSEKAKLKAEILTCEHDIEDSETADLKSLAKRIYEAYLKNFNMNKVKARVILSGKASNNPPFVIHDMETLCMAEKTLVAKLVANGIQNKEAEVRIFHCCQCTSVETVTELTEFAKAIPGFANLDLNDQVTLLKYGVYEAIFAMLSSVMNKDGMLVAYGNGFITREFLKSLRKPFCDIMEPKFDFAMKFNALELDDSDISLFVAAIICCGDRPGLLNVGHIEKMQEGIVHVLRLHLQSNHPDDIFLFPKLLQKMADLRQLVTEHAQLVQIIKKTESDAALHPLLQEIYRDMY

[2] = target: T2, Peroxisome proliferator-activated receptor alpha (Homo sapiens, UniProt Q07869); test: Agonist activity at PPARalpha ligand binding domain expressed in HEK293 cells co-expressing GAL4 after 18 hrs by dual-luciferase activity based transactivation assay; type: cell-based
T2 sequence (Q07869 whole entry): T1 sequence (whole entry)

[3] = target: T1, Peroxisome proliferator-activated receptor alpha (Homo sapiens); test: Antagonist activity at PPARalpha in human HepG2 cells assessed as inhibition of CPT1A mRNA expression at 150 uM after 48 hrs by RT-PCR analysis relative to control; type: functional, cell-based
[4] = target: T1, Peroxisome proliferator-activated receptor alpha (Homo sapiens); test: Antagonist activity at PPARalpha in human HepG2 cells assessed as inhibition of GW7647-induced CPT1A mRNA expression at 150 uM after 48 hrs by RT-PCR analysis relative to control; type: functional, cell-based
[5] = target: T2, Peroxisome proliferator-activated receptor alpha; test: (§1) Antagonist activity at PPARalpha ligand binding domain expressed in HEK293 cells co-expressing GAL4 assessed as inhibition of GW7647-induced transactivation activity after 18 hrs by dual-luciferase assay; type: cell-based
[6] = target: T1, Peroxisome proliferator-activated receptor alpha (Homo sapiens); test: Antagonist activity at PPARalpha ligand binding domain expressed in HEK293 cells co-expressing GAL4 assessed as inhibition of GW7647-induced transactivation activity at 10 uM after 18 hrs by dual-luciferase assay relative to control; type: cell-based
[7] = target: T1, Peroxisome proliferator-activated receptor alpha (Homo sapiens); test: Antagonist activity at PPARalpha ligand binding domain expressed in HEK293 cells co-expressing GAL4 assessed as inhibition of transactivation activity at 150 uM after 18 hrs by dual-luciferase assay relative to control; type: cell-based
[8] = target: T1, Peroxisome proliferator-activated receptor alpha (Homo sapiens); test: Antagonist activity at PPARalpha ligand binding domain expressed in HEK293 cells co-expressing GAL4 assessed as inhibition of GW7647-induced transactivation activity at 150 uM after 18 hrs by dual-luciferase assay relative to control; type: cell-based
[9] = target: T1, Peroxisome proliferator-activated receptor alpha (Homo sapiens); test: Antagonist activity at PPARalpha ligand binding domain expressed in HEK293 cells co-expressing GAL4 assessed as inhibition of GW7647-induced transactivation activity at 1 uM after 18 hrs by dual-luciferase assay relative to control; type: cell-based
[10] = target: T1, Peroxisome proliferator-activated receptor alpha (Homo sapiens); test: Antagonist activity at PPARalpha ligand binding domain expressed in HEK293 cells co-expressing GAL4 assessed as inhibition of transactivation activity at 100 uM after 18 hrs by dual-luciferase assay relative to control; type: cell-based
[11] = target: T1, Peroxisome proliferator-activated receptor alpha (Homo sapiens); test: Antagonist activity at PPARalpha ligand binding domain expressed in HEK293 cells co-expressing GAL4 assessed as inhibition of transactivation activity at 1 uM after 18 hrs by dual-luciferase assay relative to control; type: cell-based
[12] = target: T1, Peroxisome proliferator-activated receptor alpha (Homo sapiens); test: Antagonist activity at PPARalpha in human HepG2 cells assessed as inhibition of GW7647-induced CPT1A mRNA expression after 48 hrs by RT-PCR analysis relative to control; type: functional, cell-based
[13] = target: T1, Peroxisome proliferator-activated receptor alpha (Homo sapiens); test: Antagonist activity at PPARalpha in human HepG2 cells assessed as inhibition of GW7647-induced CPT1A mRNA expression at 20 uM after 48 hrs by RT-PCR analysis relative to control; type: functional, cell-based
[14] = target: T1, Peroxisome proliferator-activated receptor alpha (Homo sapiens); test: as §1; type: cell-based
[15] = target: T1, Peroxisome proliferator-activated receptor alpha (Homo sapiens); test: Antagonist activity at PPARalpha ligand binding domain expressed in HEK293 cells co-expressing GAL4 assessed as inhibition of transactivation activity at 10 uM after 18 hrs by dual-luciferase assay relative to control; type: cell-based
[16] = target: T1, Peroxisome proliferator-activated receptor alpha (Homo sapiens); test: Antagonist activity at PPARalpha in human HepG2 cells assessed as inhibition of GW7647-induced CPT1A mRNA expression at 2 uM after 48 hrs by RT-PCR analysis relative to control; type: functional, cell-based
[17] = target: T1, Peroxisome proliferator-activated receptor alpha (Homo sapiens); test: Antagonist activity at PPARalpha in human HepG2 cells assessed as inhibition of GW7647-induced CPT1A mRNA expression at 0.2 uM after 48 hrs by RT-PCR analysis relative to control; type: functional, cell-based
[18] = target: T1, Peroxisome proliferator-activated receptor alpha (Homo sapiens); test: Antagonist activity at PPARalpha ligand binding domain expressed in HEK293 cells co-expressing GAL4 assessed as inhibition of transactivation activity at 50 uM after 18 hrs by dual-luciferase assay relative to control; type: cell-based
[19] = target: T1, Peroxisome proliferator-activated receptor alpha (Homo sapiens); test: Antagonist activity at PPARalpha ligand binding domain expressed in HEK293 cells co-expressing GAL4 assessed as inhibition of GW7647-induced transactivation activity at 50 uM after 18 hrs by dual-luciferase assay relative to control; type: cell-based
[20] = target: T1, Peroxisome proliferator-activated receptor alpha (Homo sapiens); test: Antagonist activity at PPARalpha ligand binding domain expressed in HEK293 cells co-expressing GAL4 assessed as inhibition of GW7647-induced transactivation activity at 100 uM after 18 hrs by dual-luciferase assay relative to control; type: cell-based

fold change (FC) [1] | fold change (FC) [3] | fold change (FC) [4] | IC50 [5] | Structure (SMILES) | other results
0.89 | – | – | – | CCOc1ccc2nc(SC(C)C(=O)NS(=O)(=O)c3ccccc3)sc2c1 (racemic) | –
1.49 | – | – | – | CCCCCCC(Sc1nc2cc(Cl)ccc2s1)C(=O)NS(=O)(=O)c1ccccc1 (racemic) | EC50 [2]: 50.6 µM
0.09 | 0.248 | 0.235 | 22.2 µM | CCCC(Sc1nc2cc(Cl)ccc2s1)C(=O)NS(=O)(=O)c1ccccc1 (racemic) | –
0.01 | 0.005 | 0.003 | 19.9 µM | CCCCC(Sc1nc2cc(Cl)ccc2s1)C(=O)NS(=O)(=O)c1ccccc1 (racemic) | –
1.6 | – | – | – | CC(C)(Oc1ccc(Cl)cc1)C(=O)O | –
0.05 | – | – | 31 µM | CCCC(Sc1nc2ccc(OCC)cc2s1)C(=O)NS(=O)(=O)c1ccccc1 (racemic) | –
0.1 | – | – | 27.9 µM | CC(C)C(Sc1nc2cc(Cl)ccc2s1)C(=O)NS(=O)(=O)c1ccccc1 (racemic) | –
0.01 | 0.005 | 0.005 | 6.5 µM | O=C(NS(=O)(=O)c1ccccc1)C(Sc1nc2cc(Cl)ccc2s1)c1ccccc1 (racemic) | fold change (FC) [6]: 2.14; fold change (FC) [7]: -0.01; fold change (FC) [8]: -0.09; fold change (FC) [9]: 3.8; fold change (FC) [10]: -0.03; fold change (FC) [11]: -0.78; inhibition [12]: Dose-dependent effect; fold change (FC) [13]: 1.68; inhibition [14]: Dose-dependent effect; fold change (FC) [15]: -0.23; fold change (FC) [16]: 2.36; fold change (FC) [17]: 3.59; fold change (FC) [18]: -0.03; fold change (FC) [19]: -0.63; fold change (FC) [20]: -0.1
